Source: patent US4572895A, “Process for preparing an antibiotic complex by culturing actinomyces strain ATCC 39417” (priority 1985, dated 1986)
≈ marks a conversion by molar mass, not a printed value.

Experiments:
[1] = system: Staphylococcus aureus 209P; experiment: MIC, serial two-fold agar dilution; format: cell-based; settings: nutrient agar
[2] = system: Staphylococcus aureus Smith; experiment: MIC, serial two-fold agar dilution; format: cell-based; settings: nutrient agar
[3] = system: Bacillus subtilis PCI 219; experiment: MIC, serial two-fold agar dilution; format: cell-based; settings: PCI219, nutrient agar
[4] = system: Micrococcus luteus PCI 1001; experiment: MIC, serial two-fold agar dilution; format: cell-based; settings: PCI1001, nutrient agar
Micrococcus flavus D12 = experiment: MIC, serial two-fold agar dilution; format: cell-based; settings: nutrient agar
Escherichia coli NIHJ = experiment: MIC, serial two-fold agar dilution; format: cell-based; settings: nutrient agar
[5] = system: Klebsiella pneumoniae D11; experiment: MIC, serial two-fold agar dilution; format: cell-based; settings: nutrient agar
[6] = system: Pseudomonas aeruginosa D15; experiment: MIC, serial two-fold agar dilution; format: cell-based; settings: nutrient agar
[7] = system: Candida albicans IAM 4888; experiment: MIC, serial two-fold agar dilution; format: cell-based; settings: IAM4888, Sabouraud agar
[8] = system: Cryptococcus neoformans D49; experiment: MIC, serial two-fold agar dilution; format: cell-based; settings: Sabouraud agar
[9] = system: Aspergillus fumigatus IAM 2530; experiment: MIC, serial two-fold agar dilution; format: cell-based; settings: IAM2530, Sabouraud agar
[10] = system: Trichophyton mentagrophytes D155; experiment: MIC, serial two-fold agar dilution; format: cell-based; settings: Sabouraud agar
Bacteroides fragilis = experiment: MIC, serial two-fold agar dilution; format: cell-based; settings: GAM agar, anaerobe
Clostridium difficile = experiment: MIC, serial two-fold agar dilution; format: cell-based; settings: Clostridioides difficile; GAM agar, anaerobe
Clostridium perfringens = experiment: microbe, parasite or virus in culture; format: cell-based
Propionibacterium acnes = experiment: MIC, serial two-fold agar dilution; format: cell-based; settings: Cutibacterium acnes; GAM agar, anaerobe
Staphylococcus aureus = experiment: anti-staphylococcal activity (MIC comparison); format: cell-based; settings: vs BBM-2478B or chartreusin
[11] = system: gram-negative bacteria and fungi; experiment: antibacterial/antifungal activity (MIC), summary; format: cell-based
[12] = system: P388, L1210 and B16 tumors; experiment: antitumor activity in mice, summary over P388, L1210 and B16; format: in vivo, BDF1 mice
[13] = acute toxicity, single intraperitoneal administration; settings: mouse, in vivo; single ip, mice (ddY strain)
solubility = format: physicochemical
[14] = system: aerobic gram-positive bacteria and anaerobic bacteria; experiment: antibacterial activity, summary; format: cell-based
Source text: Nutrient agar medium was used for gram-positive and gram-negative bacteria, GAM agar medium for anaerobes and Sabouraud agar medium for fungi.

melanotic melanoma B16 = experiment: antitumor activity, B16 melanoma in mice; settings: qd 1→9
[15] = system: lymphocytic leukemia P388; experiment: antitumor activity, P388 leukemia in mice; settings: qd 1→9
lymphoid leukemia L1210 = experiment: antitumor activity, L1210 leukemia in mice; settings: qd 1→9

CO[C@@H]1[C@@H](N)[C@@H](O[C@H]2[C@H](Oc3cccc4c(O)c5c(=O)oc6ccc(C)c7c(=O)oc(c34)c5c67)O[C@H](C)[C@H](O)[C@]2(C)O)O[C@H](C)[C@@H]1O [BBM-2478A]
MIC [1]: 1.6 µg/mL (≈ 2.45 µM)
MIC [2]: 0.8 µg/mL (≈ 1.22 µM)
MIC [3]: 0.8 µg/mL (≈ 1.22 µM)
MIC [4]: 0.8 µg/mL (≈ 1.22 µM)
MIC (Micrococcus flavus D12): 0.8 µg/mL (≈ 1.22 µM)
MIC (Escherichia coli NIHJ): 100 µg/mL (≈ 153 µM)
MIC [5]: 100 µg/mL (≈ 153 µM)
MIC [6]: 100 µg/mL (≈ 153 µM)
MIC [7]: > 100 µg/mL
MIC [8]: > 100 µg/mL
MIC [9]: > 100 µg/mL
MIC [10]: > 100 µg/mL
MIC (Bacteroides fragilis): 12.5 µg/mL (≈ 19.1 µM)
MIC (Clostridium difficile): 12.5 µg/mL (≈ 19.1 µM)
MIC (Clostridium perfringens): 6.3 µg/mL (≈ 9.64 µM)
MIC (Propionibacterium acnes): 6.3 µg/mL (≈ 9.64 µM)
anti-staphylococcal activity relative to BBM-2478B or chartreusin (Staphylococcus aureus): two to four times higher
activity against gram-negative bacteria and fungi [11]: inactive
T/C values compared with chartreusin ([12]; all tumors tested, ip, qd 1→9): superior to those of chartreusin
antitumor activity ([12]; experimental mouse tumors): significant antitumor activity
LD50 [13]: 38 mg/kg
solubility in acidic water (solubility; acidic water): readily soluble
solubility in dimethyl sulfoxide, dimethylformamide, dioxane (solubility; dimethyl sulfoxide, dimethylformamide, dioxane): readily soluble
solubility in methanol, ethanol and chloroform (solubility; methanol, ethanol, chloroform): slightly soluble
solubility in other organic solvents (solubility; other organic solvents): insoluble
antibacterial activity [14]: potent antibacterial activity
Average wt. change on day 5 (melanotic melanoma B16; 0.03 mg/kg/day ip): +2.0 g
MST (melanotic melanoma B16; 0.03 mg/kg/day ip): 16.0 days
Survivors on day 5 (melanotic melanoma B16; 0.03 mg/kg/day ip): 6/6
Survivors on day 45 (melanotic melanoma B16; 0.03 mg/kg/day ip): 0/6
T/C (melanotic melanoma B16; 0.03 mg/kg/day ip): 114%
Average wt. change on day 5 (melanotic melanoma B16; 0.1 mg/kg/day ip): +2.5 g
MST (melanotic melanoma B16; 0.1 mg/kg/day ip): 18.5 days
Survivors on day 5 (melanotic melanoma B16; 0.1 mg/kg/day ip): 6/6
Survivors on day 45 (melanotic melanoma B16; 0.1 mg/kg/day ip): 0/6
Average wt. change on day 5 (melanotic melanoma B16; 0.3 mg/kg/day ip): +2.5 g
MST (melanotic melanoma B16; 0.3 mg/kg/day ip): 25.5 days
Survivors on day 5 (melanotic melanoma B16; 0.3 mg/kg/day ip): 6/6
Survivors on day 45 (melanotic melanoma B16; 0.3 mg/kg/day ip): 0/6
Average wt. change on day 5 (melanotic melanoma B16; 1 mg/kg/day ip): +2.2 g
MST (melanotic melanoma B16; 1 mg/kg/day ip): 34.5 days
Survivors on day 5 (melanotic melanoma B16; 1 mg/kg/day ip): 6/6
Survivors on day 45 (melanotic melanoma B16; 1 mg/kg/day ip): 0/6
Average wt. change on day 5 (melanotic melanoma B16; 3 mg/kg/day ip): +1.5 g
MST (melanotic melanoma B16; 3 mg/kg/day ip): 41.5 days
Survivors on day 5 (melanotic melanoma B16; 3 mg/kg/day ip): 6/6
Survivors on day 45 (melanotic melanoma B16; 3 mg/kg/day ip): 0/6
Average wt. change on day 5 ([15]; 0.01 mg/kg/day ip): +2.0 g
MST ([15]; 0.01 mg/kg/day ip): 10.0 days
Survivors on day 5 ([15]; 0.01 mg/kg/day ip): 6/6
Survivors on day 45 ([15]; 0.01 mg/kg/day ip): 0/6
T/C ([15]; 0.01 mg/kg/day ip): 111%
Average wt. change on day 5 ([15]; 0.03 mg/kg/day ip): +2.3 g
MST ([15]; 0.03 mg/kg/day ip): 10.0 days
Survivors on day 5 ([15]; 0.03 mg/kg/day ip): 6/6
Survivors on day 45 ([15]; 0.03 mg/kg/day ip): 0/6
Average wt. change on day 5 ([15]; 0.1 mg/kg/day ip): +1.2 g
MST ([15]; 0.1 mg/kg/day ip): 14.5 days
Survivors on day 5 ([15]; 0.1 mg/kg/day ip): 6/6
Survivors on day 45 ([15]; 0.1 mg/kg/day ip): 0/6
Average wt. change on day 5 ([15]; 0.3 mg/kg/day ip): +1.8 g
MST ([15]; 0.3 mg/kg/day ip): 17.0 days
Survivors on day 5 ([15]; 0.3 mg/kg/day ip): 6/6
Survivors on day 45 ([15]; 0.3 mg/kg/day ip): 0/6
Average wt. change on day 5 ([15]; 1 mg/kg/day ip): +0.8 g
MST ([15]; 1 mg/kg/day ip): 21.5 days
Survivors on day 5 ([15]; 1 mg/kg/day ip): 6/6
Survivors on day 45 ([15]; 1 mg/kg/day ip): 0/6
Average wt. change on day 5 ([15]; 3 mg/kg/day ip): -1.0 g
MST ([15]; 3 mg/kg/day ip): 20.0 days
Survivors on day 5 ([15]; 3 mg/kg/day ip): 5/5
Survivors on day 45 ([15]; 3 mg/kg/day ip): 0/5
Average wt. change on day 5 (lymphoid leukemia L1210; 0.01 mg/kg/day ip): +3.2 g
MST (lymphoid leukemia L1210; 0.01 mg/kg/day ip): 8.0 days
Survivors on day 5 (lymphoid leukemia L1210; 0.01 mg/kg/day ip): 6/6
Survivors on day 45 (lymphoid leukemia L1210; 0.01 mg/kg/day ip): 0/6
T/C (lymphoid leukemia L1210; 0.01 mg/kg/day ip): 100%
Average wt. change on day 5 (lymphoid leukemia L1210; 0.03 mg/kg/day ip): +2.9 g
MST (lymphoid leukemia L1210; 0.03 mg/kg/day ip): 8.0 days
Survivors on day 5 (lymphoid leukemia L1210; 0.03 mg/kg/day ip): 6/6
Survivors on day 45 (lymphoid leukemia L1210; 0.03 mg/kg/day ip): 0/6
T/C (lymphoid leukemia L1210; 0.03 mg/kg/day ip): 100%
Average wt. change on day 5 (lymphoid leukemia L1210; 0.1 mg/kg/day ip): +2.6 g
MST (lymphoid leukemia L1210; 0.1 mg/kg/day ip): 8.0 days
Survivors on day 5 (lymphoid leukemia L1210; 0.1 mg/kg/day ip): 6/6
Survivors on day 45 (lymphoid leukemia L1210; 0.1 mg/kg/day ip): 0/6
T/C (lymphoid leukemia L1210; 0.1 mg/kg/day ip): 100%
Average wt. change on day 5 (lymphoid leukemia L1210; 0.3 mg/kg/day ip): +1.3 g
MST (lymphoid leukemia L1210; 0.3 mg/kg/day ip): 10.5 days
Survivors on day 5 (lymphoid leukemia L1210; 0.3 mg/kg/day ip): 6/6
Survivors on day 45 (lymphoid leukemia L1210; 0.3 mg/kg/day ip): 0/6
Average wt. change on day 5 (lymphoid leukemia L1210; 1 mg/kg/day ip): -0.8 g
MST (lymphoid leukemia L1210; 1 mg/kg/day ip): 11.0 days
Survivors on day 5 (lymphoid leukemia L1210; 1 mg/kg/day ip): 6/6
Survivors on day 45 (lymphoid leukemia L1210; 1 mg/kg/day ip): 0/6
Average wt. change on day 5 (lymphoid leukemia L1210; 3 mg/kg/day ip): -0.1 g
MST (lymphoid leukemia L1210; 3 mg/kg/day ip): 12.0 days
Survivors on day 5 (lymphoid leukemia L1210; 3 mg/kg/day ip): 6/6
Survivors on day 45 (lymphoid leukemia L1210; 3 mg/kg/day ip): 0/6
